Laboratory results as given in patent publication US8993756B2 (Merck Sharp & Dohme Corp., priority 2011, dated 2015).

Experiments:
JAK2 = JAK2 (Homo sapiens (Human), UniProt O60674); assay: Jak Biochemical HTRF Assay (JAK2); details: recombinant GST-tagged catalytic domain, [ATP] 8.5 μM
JAK3 = JAK3 (Homo sapiens (Human), UniProt P52333); assay: Jak Biochemical HTRF Assay (JAK3); details: recombinant GST-tagged catalytic domain, [ATP] 2.9 μM
JAK3, sequence (P52333 822-1111): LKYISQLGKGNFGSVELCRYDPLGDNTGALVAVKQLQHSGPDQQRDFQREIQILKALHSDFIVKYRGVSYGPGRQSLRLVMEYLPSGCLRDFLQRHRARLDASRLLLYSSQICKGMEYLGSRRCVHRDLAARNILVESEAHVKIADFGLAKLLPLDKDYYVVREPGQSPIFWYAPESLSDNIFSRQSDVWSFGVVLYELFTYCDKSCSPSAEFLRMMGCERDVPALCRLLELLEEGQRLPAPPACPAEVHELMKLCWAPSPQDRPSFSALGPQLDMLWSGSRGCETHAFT

JAK2, sequence (O60674 849-1124): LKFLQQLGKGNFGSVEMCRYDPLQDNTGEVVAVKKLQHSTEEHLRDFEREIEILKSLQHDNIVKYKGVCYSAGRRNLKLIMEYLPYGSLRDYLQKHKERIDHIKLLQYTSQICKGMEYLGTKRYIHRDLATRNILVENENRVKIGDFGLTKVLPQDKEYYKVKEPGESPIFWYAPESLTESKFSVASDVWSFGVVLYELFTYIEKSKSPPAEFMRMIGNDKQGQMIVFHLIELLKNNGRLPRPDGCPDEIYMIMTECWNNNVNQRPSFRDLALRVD

Structure (SMILES)	IC50 (JAK2)	IC50 (JAK3)	IC50 (JAK2; given as range class)	IC50 (JAK3; given as range class)
C=C(C)C(=O)Nc1cccc(-c2ncnc3[nH]cc(-c4cccnc4)c23)c1 [Example 21-4, N-(3-(5-(pyridin-3-yl)-7H-pyrrolo[2,3-d]pyrimidin-4-yl)phenyl)methacrylamide]	> 1.5 µM	0.0097 µM		
C=C(C)C(=O)Nc1cccc(-c2ncnc3[nH]cc(C4=CCOCC4)c23)c1 [Example 21-5, N-(3-(5-(3,6-dihydro-2H-pyran-4-yl)-7H-pyrrolo[2,3-d]pyrimidin-4-yl)phenyl)methacrylamide]	> 1.5 µM	0.005 µM		
C=C(C)C(=O)Nc1cccc(-c2ncnc3[nH]cc(-c4cnc(C)s4)c23)c1 [Example 21-6, N-(3-(5-(2-methylthiazol-5-yl)-7H-pyrrolo[2,3-d]pyrimidin-4-yl)phenyl)methacrylamide]	> 1.5 µM	0.0103 µM		
C=C(C)C(=O)Nc1cccc(-c2ncnc3[nH]cc(-c4cncs4)c23)c1 [Example 21-7, N-(3-(5-(thiazol-5-yl)-7H-pyrrolo[2,3-d]pyrimidin-4-yl)phenyl)methacrylamide]	> 0.5 µM	0.0018 µM		
C=C(C)C(=O)Nc1cccc(-c2ncnc3[nH]cc(-c4ncco4)c23)c1 [Example 22, N-(3-(5-(Oxazol-2-yl)-7H-pyrrolo[2,3-d]pyrimidin-4-yl)phenyl)methacrylamide]	> 1.5 µM	0.008 µM		
C=C(C)C(=O)Nc1cccc(-c2ncnc3[nH]cc(C4CCOCC4)c23)c1 [Example 23, N-(3-(5-(Tetrahydro-2H-pyran-4-yl)-7H-pyrrolo[2,3-d]pyrimidin-4-yl)phenyl)methacrylamide]	> 1.5 µM	0.0083 µM		
C=C(C)C(=O)N(C)c1cccc(-c2ncnc3[nH]cc(C4CCOCC4)c23)c1 [Example 24, N-Methyl-N-(3-(5-(tetrahydro-2H-pyran-4-yl)-7H-pyrrolo[2,3-d]pyrimidin-4-yl)phenyl)methacrylamide]			> 0.5 µM	> 0.5 µM
C=C(C)C(=O)Nc1cccc(-c2ncnc3[nH]cc(C4CCCO4)c23)c1 (centres unmarked) [Example 25, N-(3-(5-(Tetrahydrofuran-2-yl)-7H-pyrrolo[2,3-d]pyrimidin-4-yl)phenyl)methacrylamide]			> 0.5 µM	0.01 to 0.5 µM
C=C(C)C(=O)Nc1cccc(-c2ncnc3[nH]cc(-c4nnc(C)o4)c23)c1 [Example 26, N-(3-(5-(5-Methyl-1,3,4-oxadiazol-2-yl)-7H-pyrrolo[2,3-d]pyrimidin-4-yl)phenyl)methacrylamide]	> 1.5 µM	0.0025 µM		
C=C(C)C(=O)Nc1cccc(-c2ncnc3[nH]cc(-c4nnc(C)s4)c23)c1 [Example 27, N-(3-(5-(5-Methyl-1,3,4-thiadiazol-2-yl)-7H-pyrrolo[2,3-d]pyrimidin-4-yl)phenyl)methacrylamide]			> 0.5 µM	0.01 to 0.5 µM
C=C(C)C(=O)Nc1cccc(-c2ncnc3[nH]cc(C4=NCC(C)O4)c23)c1 (centres unmarked) [Example 28, N-(3-(5-(5-Methyl-4,5-dihydrooxazol-2-yl)-7H-pyrrolo[2,3-d]pyrimidin-4-yl)phenyl)methacrylamide]			> 0.5 µM	0.01 to 0.5 µM
C=C(C)C(=O)Nc1cccc(-c2ncnc3[nH]cc(-c4nc(C)co4)c23)c1 [Example 29, N-(3-(5-(4-Methyloxazol-2-yl)-7H-pyrrolo[2,3-d]pyrimidin-4-yl)phenyl)methacrylamide]			> 0.5 µM	0.01 to 0.5 µM
C=C(C)C(=O)Nc1cccc(-c2ncnc3[nH]cc(-c4cnco4)c23)c1 [Example 30, N-(3-(5-(Oxazol-5-yl)-7H-pyrrolo[2,3-d]pyrimidin-4-yl)phenyl)methacrylamide]	> 1.5 µM	0.005 µM		
C=C(C)C(=O)Nc1cccc(-c2ncnc3[nH]cc(-c4nccs4)c23)c1 [Example 31, N-(3-(5-(Thiazol-2-yl)-7H-pyrrolo[2,3-d]pyrimidin-4-yl)phenyl)methacrylamide]			> 0.5 µM	0.01 to 0.5 µM

Further lines, results first:

IC50 (JAK2)	IC50 (JAK3)	IC50 (JAK2; given as range class)	IC50 (JAK3; given as range class)	Structure (SMILES)
		0.01 to 0.5 µM	0.01 to 0.5 µM	COc1ncccc1-c1c[nH]c2ncnc(-c3ccccc3)c12 [Example 32-1, 5-(2-Methoxypyridin-3-yl)-4-phenyl-7H-pyrrolo[2,3-d]pyrimidine]
0.093 µM	0.0031 µM			COc1cccc(-c2c[nH]c3ncnc(-c4ccccc4)c23)c1 [Example 32-3, 5-(3-methoxyphenyl)-4-phenyl-7H-pyrrolo[2,3-d]pyrimidine]
		> 0.5 µM	0.01 to 0.5 µM	c1ccc(Oc2cccc(-c3c[nH]c4ncnc(-c5ccccc5)c34)c2)cc1 [Example 32-4, 5-(3-phenoxyphenyl)-4-phenyl-7H-pyrrolo[2,3-d]pyrimidine]
		> 0.5 µM	0.01 to 0.5 µM	c1ccc(COc2cccc(-c3c[nH]c4ncnc(-c5ccccc5)c34)c2)cc1 [Example 32-5, 5-[3-(benzyloxy)phenyl]-4-phenyl-7H-pyrrolo[2,3-d]pyrimidine]
		> 0.5 µM	0.01 to 0.5 µM	c1ccc(Oc2ccccc2-c2c[nH]c3ncnc(-c4ccccc4)c23)cc1 [Example 32-6, 5-(2-phenoxyphenyl)-4-phenyl-7H-pyrrolo[2,3-d]pyrimidine]
0.183 µM	0.0034 µM			COc1ccccc1-c1c[nH]c2ncnc(-c3ccccc3)c12 [Example 33-1, 5-(2-Methoxyphenyl)-4-phenyl-7H-pyrrolo[2,3-d]pyrimidine]
> 1.5 µM	0.0069 µM			COc1ccccc1-c1c[nH]c2ncnc(-c3ccc4cn(C)nc4c3)c12 [Example 33-2, 5-(2-methoxyphenyl)-4-(2-methyl-2H-indazol-6-yl)-7H-pyrrolo[2,3-d]pyrimidine]
0.071 µM	0.0014 µM			COc1ccc(F)cc1-c1c[nH]c2ncnc(-c3ccccc3)c12 [Example 33-3, 5-(5-fluoro-2-methoxyphenyl)-4-phenyl-7H-pyrrolo[2,3-d]pyrimidine]
		0.01 to 0.5 µM	0.01 to 0.5 µM	COc1cccc(-c2ncnc3[nH]cc(-c4ccccc4OC)c23)c1 [Example 33-4, 5-(2-methoxphenyl)-4-(3-methoxyphenyl)-7H-pyrrolo[2,3-d]pyrimidine]
		> 0.5 µM	0.01 to 0.5 µM	COc1ccccc1-c1c[nH]c2ncnc(-c3cccc(C(=O)N(C)C)c3)c12 [Example 33-5, 3-[5-(2-methoxyphenyl)-7H-pyrrolo[2,3-d]pyrimidin-4-yl]-N,N-dimethylbenzamide]
		0.01 to 0.5 µM	0.01 to 0.5 µM	COc1ccccc1-c1c[nH]c2ncnc(-c3cn[nH]c3)c12 [Example 33-6, 5-(2-methoxyphenyl)-4-(1H-pyrazol-4-yl)-7H-pyrrolo[2,3-d]pyrimidine]
